Measurements reported in publication PMC9967275, “Screening the Pathogen Box to Discover and Characterize New Cruzain and TbrCatL Inhibitors” (Pathogens, 2023).
Entries after “also recorded” stand apart in the source; their conditions may differ. Where two headings read alike, the source gives them in different places.

Columns and labels:
[1] = target: T1, TbrCatL (Trypanosoma brucei rhodesiense, UniProt Q95PM0); assay: TbrCatL enzymatic inhibition assay (cleavage of fluorogenic substrate Z-FR-AMC); format: biochemical
T1 construct: Conor Caffrey (University of California San Diego)
How it was run: (§1)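 Recombinant enzymes assayed by Z-Phe-Arg-AMC cleavage at 25 °C, fluorescence 340/440 nm over 5–7 min, with 10 min or no enzyme–compound preincubation.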

[2] = system: DNA minor groove; design: method as in PMID 18247550, PMID 22497334; conditions: SPR, ITC, CD, and Tm experiments; cited from earlier work
[3] = target: T2, cruzain (Trypanosoma cruzi, UniProt P25779); assay: Aggregation counter-assays: cruzain inhibition at varying Triton X-100 and after pre-incubation with BSA; format: biochemical; design: Cruzain is the truncated, recombinant-expressed cruzipain 1; Brian Shoichet (University of California San Francisco)
Description: To assess the effects of the Triton X-100 concentration on cruzain inhibition, assays were performed using 0.001%, 0.01%, and 0.1% Triton X-100. To evaluate the impact of pre-incubation with bovine serum albumin (BSA), 50 µL of a solution of the compound in the assay buffer containing 0.001% of Triton X-100 was incubated with 4 mg/mL of BSA (Sigma-Aldrich) for 10′ in a 96-well plate. Next, 50 µL of a solution containing circa 2 nM of cruzain in the same buffer was added to each well and incubated for another 10′. Finally, 100 µL of a solution of 5 µM Z-FR-AMC in the same buffer was added to each well and the fluorescence was immediately read. The final compound concentration varies and was selected to be near the compound IC50.
To investigate if inhibition was due to colloidal aggregation, a common cause of unspecific enzyme inhibition in in vitro assays, we employed two well-established experiments: the comparison of percentages of inhibition at varying Triton X-100 concentrations and the effect of compound pre-incubation with BSA on the percentage of inhibition. […] Pre-incubating a compound that aggregates with BSA saturates the protein-binding capacity of the aggregate.

[4] = system: porphobilinogen deaminase; design: method as in earlier work; conditions: cited from earlier work
[5] = system: ferrochelatase; design: method as in earlier work; conditions: cited from earlier work
[6] = target: T2, cruzain; assay: biochemical
How it was run: as §1

[7] = target: T2, cruzain; assay: Mechanism of inhibition against cruzain (Michaelis-Menten, Lineweaver-Burk); format: biochemical; design: Cruzain is the truncated, recombinant-expressed cruzipain 1; Brian Shoichet (University of California San Francisco)
Description: Non-linear regression to Michaelis-Menten models and linear regression for the Lineweaver-Burk plot were performed. Ki was estimated by both methods. The effect of the inhibitor concentration on the Km app was evaluated using the General Linear F-test.

[8] = system: T. cruzi; conditions: read-out: EC50 against T. cruzi; cited from earlier work
[9] = system: SARS-CoV-2 MPro; design: method as in PMID 33655614; conditions: read-out: IC50 against MPro; cited from earlier work
[10] = design: method as in earlier work; conditions: cited from earlier work

T1 sequence (Q95PM0 entry or part of it): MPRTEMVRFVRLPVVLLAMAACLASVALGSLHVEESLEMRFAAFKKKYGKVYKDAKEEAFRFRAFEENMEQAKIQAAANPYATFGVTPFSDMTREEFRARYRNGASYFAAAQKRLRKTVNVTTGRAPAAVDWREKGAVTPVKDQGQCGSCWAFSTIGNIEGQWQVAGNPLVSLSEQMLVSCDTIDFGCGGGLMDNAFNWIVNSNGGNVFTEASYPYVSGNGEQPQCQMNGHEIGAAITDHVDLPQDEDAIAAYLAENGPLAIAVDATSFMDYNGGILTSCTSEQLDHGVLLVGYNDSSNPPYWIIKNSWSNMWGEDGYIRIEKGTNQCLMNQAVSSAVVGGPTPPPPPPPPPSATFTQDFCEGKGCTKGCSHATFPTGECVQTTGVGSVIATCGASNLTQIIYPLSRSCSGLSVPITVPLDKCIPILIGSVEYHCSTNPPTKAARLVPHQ
T2 sequence (P25779 123-337 limits assumed): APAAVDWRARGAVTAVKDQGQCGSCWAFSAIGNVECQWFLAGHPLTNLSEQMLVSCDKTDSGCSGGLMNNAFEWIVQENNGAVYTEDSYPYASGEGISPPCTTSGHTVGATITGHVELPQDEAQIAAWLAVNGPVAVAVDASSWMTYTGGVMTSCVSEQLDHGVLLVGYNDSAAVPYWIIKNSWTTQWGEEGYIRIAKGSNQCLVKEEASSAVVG

For N=C(N)Nc1ccc(-c2ccc(-c3ccc(NC(=N)N)cc3Cl)o2)c(Cl)c1 [MMV688179], the IC50 ([1]; IC50 (µM ± SEM %) TbrCatL 0′, no pre-incubation) was 4 ± 1 µM, the IC50 ([1]; IC50 (µM ± SEM %) TbrCatL 10′ inc, 10′ pre-incubation) was 5 ± 2 µM and the “IC50 against TbrCatL relative to cruzain” value ([1]; TbrCatL vs cruzain) was 10 fold. It also gave an inhibition at 5 µM ([1]; read-out: Inhibition at 5 µM (Mean ± SEM %) TbrCatL 0′) of 50 ± 3%, an inhibition at 5 µM ([1]; read-out: Inhibition at 5 µM (Mean ± SEM %) TbrCatL 10′ inc) of 58 ± 25% and an inhibition at 100 µM ([1]; read-out: Inhibition at 100 µM (Mean ± SEM %) TbrCatL 0′) of 100%. The inhibition at 100 µM ([1]; read-out: Inhibition at 100 µM (Mean ± SEM %) TbrCatL 10′ inc) was 100%, the inhibition at 5 µM ([1]; read-out: TbrCatL 0’ Inhibition) was 50% and the inhibition at 5 µM ([1]; read-out: TbrCatL 10’ Inhibition) was 58%. For the same compound, the “Binding to the DNA minor groove” value [2] was “known to bind to the DNA minor groove”, the “% Cruzain Inhibition (Mean ± SEM) 0.001% Triton + BSA 1 mg/mL” value ([3]; 0.001% Triton + BSA 1 mg/mL, compound µM: MMV687246 12.5, MMV687812 3.125, MMV688179 1.563, MMV688362 3.125, MMV688466 6.25, MMV690028 25) was 89 ± 8% and the “% Cruzain Inhibition (Mean ± SEM) 0.001% Triton X-100” value ([3]; 0.001% Triton X-100, compound µM: MMV687246 12.5, MMV687812 3.125, MMV688179 1.563, MMV688362 3.125, MMV688466 6.25, MMV690028 25) was 85 ± 6%. For the same compound, the “% Cruzain Inhibition (Mean ± SEM) 0.01% Triton X-100” value ([3]; 0.01% Triton X-100, compound µM: MMV687246 12.5, MMV687812 3.125, MMV688179 1.563, MMV688362 3.125, MMV688466 6.25, MMV690028 25) was 80 ± 1%, the “% Cruzain Inhibition (Mean ± SEM) 0.1% Triton X-100” value ([3]; 0.1% Triton X-100, compound µM: MMV687246 12.5, MMV687812 3.125, MMV688179 1.563, MMV688362 3.125, MMV688466 6.25, MMV690028 25) was 82 ± 13% and the Colloidal aggregation assessment ([3]; near the IC50) was “do not suggest aggregation properties near the IC50”. For the same compound, the “Inhibition of porphobilinogen deaminase” value [4] was “lack of MMV688179 inhibition”, the Inhibition of ferrochelatase [5] was “lack of MMV688179 inhibition” and the IC50 ([6]; IC50 (µM ± SEM %) Cruzain 0′, no pre-incubation) was 0.46 ± 0.03 µM. For the same compound, the IC50 ([6]; IC50 (µM ± SEM %) Cruzain 10′ inc, 10′ pre-incubation) was 0.53 ± 0.03 µM, the inhibition at 5 µM ([6]; read-out: Cruzain 0’ Inhibition, 0’ (pre-incubation time), sheet "Screening results") was 102% and the inhibition at 5 µM ([6]; read-out: Cruzain 10’ Inhibition, 10’ (pre-incubation time), sheet "Screening results") was 110%. For the same compound, the inhibition at 5 µM ([6]; read-out: Inhibition at 5 µM (Mean ± SEM %) Cruzain 0′, 5 µM, no pre-incubation, initial screening) was 98 ± 2%, the inhibition at 5 µM ([6]; read-out: Inhibition at 5 µM (Mean ± SEM %) Cruzain 10′ inc, 5 µM, 10′ pre-incubation, initial screening) was 100% and the inhibition at 100 µM ([6]; read-out: Inhibition at 100 µM (Mean ± SEM %) Cruzain 0′, 100 µM, no pre-incubation, solid samples) was 100%. The inhibition at 100 µM ([6]; read-out: Inhibition at 100 µM (Mean ± SEM %) Cruzain 10′ inc, 100 µM, 10′ pre-incubation, solid samples) was 100%, the inhibition at 5 µM ([6]; read-out: Inhibition of cruzain or TbrCatL (either enzyme) in the initial screening, 5 µM, either cruzain or TbrCatL, with or without pre-incubation) was ≥ 60% and the “Mechanism of inhibition of cruzain” value [7] was “competitive inhibitor; also recorded: competition with the substrate”. The Ki ([7]; competitive model, read-out: Ki against cruzain from non-linear regression of the Michaelis-Menten competitive model) was 165 ± 63 nM, the Ki ([7]; linear regression of Kmapp, read-out: Ki against cruzain from the linear regression of Kmapp) was 206 nM and the EC50 [8] was 27000 nM. For the same compound, the IC50 [9] was 1600 nM and the CC50 [10] was 11600 nM.
